The compound `CCCCCCC(=O)Oc1cc(-c2nc3ccccc3[nH]c2=O)cc([N+](=O)[O-])c1OC(=O)CCCCCC` displayed a melting point of 186 to 188 °C. Compound `O=C1NC(=O)C(c2cccs2)O1` (centres undefined) yielded a melting point of 138 to 140 °C.

`CCCN(CCC)C(=O)n1cnc(S(=O)CCC)n1` (centres undefined) had a melting point of 50 to 52 °C. `OCC1(CO)CC=CC1` had a melting point of 168 to 170 °C. `CCOC(=O)c1c(/C=C/c2nccn2C)nc2cc(OC)c(OC)cc2c1-c1ccc(OC)c(OC)c1` came in with a melting point of 206 to 208 °C.

Take `CC1(C)CCCC(C)(C)N1Oc1ccc(C(F)(F)F)cc1[N+](=O)[O-]`: the melting point is 54 to 55 °C. In the case of `CCN(CC)CC(=O)Nc1ccc(C2=NN=C(C)Cc3cc4c(cc32)OCO4)cc1`, the melting point was in the range of 157 to 158 °C. In the case of `NC(=O)c1cnn2c(-c3cccc(C(F)(F)F)c3)ccnc12`, the melting point fell in the range of 256 to 258 °C. Compound `CC(=O)Nc1cccc(-c2cc3nc(-c4cccnc4N)n(-c4cccc(-c5cc(C)nc6ccc(NC(C)=O)cc56)c4)c3nc2-c2cccnc2)c1` gave a melting point of 176 to 178 °C. `Cc1csc2c(Cl)c(Cl)c(O)cc12` displayed a melting point of 137 to 139 °C. Take `O=c1[nH]c(=O)n(CCCCN2CCC(OC(c3ccccc3)c3ccccc3)CC2)c2ccc([N+](=O)[O-])cc12`: the melting point lay in the range of 211 to 213 °C. For `O=C(O)c1cc(-c2ccc(Br)cc2)nc(-c2ccc(Br)cc2)c1`, the melting point is 292 to 294 °C. Then `CCCCCCCCCCCCC(=O)c1c[nH]c(C(=O)OC)c1`, with 92 to 93 °C. For `Nc1ncnc2c1cnn2Cc1oc2ccc(Br)cc2c(=O)c1-c1ccccc1`, the melting point was in the range of 236 to 240 °C. Compound `Cc1nc2ccc(C)c(Sc3ccncc3)c2c(=O)[nH]1` registered a melting point of 235 to 238 °C.

In the case of `COc1cccc2c1C(O)CC21CCN(CCCC(=O)c2ccc(F)cc2)C1` (centres undefined), the melting point lay within 152 to 154 °C. For `CCCc1c(C(=O)NCc2ccc3c(Br)c(OCC(=O)O)ccc3c2)cnn1-c1ccccc1`, the melting point was in the range of 140 to 145 °C.

`CC1CC(Nc2nnc(-c3cccc(Oc4ccc(C(C)(C)C)cc4)c3)s2)CC(C)(C)C1` (centres undefined) gave a melting point of 166 to 167 °C. Then `CCOc1nc(O)cc(O)n1`, with > 250 °C; and `Cc1ccccc1NC(=O)c1ccc(C(=O)N2Cc3ccccc3Cc3ccccc32)cc1`, with 214 to 216 °C; and `CNS(=O)(=O)c1ccc2c(c1)S(=O)(=O)N=C1CCCN12`, with 244 to 247 °C.

Turning to `CCCCCCCCCCCCCCCCNC(=O)CCCO`, the melting point fell in the range of 89.5 to 90 °C.

`O=C1CN=C(c2ccccc2)c2cc(C(c3ccc(Cl)cc3)n3ccnc3)ccc2N1` (centres undefined) yielded a melting point of 144 °C. With `COc1ccc(C=CC(=O)Oc2cc3c(cc2OC)CC2c4cc(OC)c(OC)cc4CCN2C3)cc1OC` (centres undefined), the melting point lay in the range of 224 to 225 °C.

On to `CCOC(=O)c1c(C)nc2nccnc2c1NCCCN(C)C`, for which the melting point lay within 42 to 44 °C. `Nc1cc(Cc2n[nH]c(=O)c3ccccc23)ccc1Cl` yielded a melting point of 227 to 228 °C. Then `CCOC(=O)/C=C/c1cc(-c2ncc(C(F)(F)F)cc2Cl)ccc1Cl`, with 118 to 120 °C; and `CC1=C(C(=O)O)C(c2ccccc2Cl)C(c2nnco2)=C(C)N1` (centres undefined), with 187 to 190 °C; and `O=Cc1ccccc1-c1nc2ccccc2o1`, with 117 to 120 °C. The compound `CCN1C(=O)C2CCc3c(Br)ccc(OC)c3C2C1=O` (centres undefined) yielded a melting point of 170 to 174 °C.

As for `Nc1ccccc1C(=O)NCCCCN1CCC(OC(c2ccccc2)c2ccccc2)CC1`, the melting point lay in the range of 74 to 75 °C. In the case of `C=C1COc2ccc(C(=O)OC)cc2C(Cc2ccccc2)(S(=O)(=O)c2ccccc2)C1` (centres undefined), the melting point is 164 to 165 °C.

On to `CN(C)CCCCC(=O)c1ccc2c(c1)C(=O)c1cc(C(=O)CCCCN(C)C)ccc1-2`, for which the melting point is 150 to 151 °C. In turn, `COc1cc(CCCOS(C)(=O)=O)ccc1OCc1coc(/C=C/c2ccccc2)n1` displayed a melting point of 130 to 131 °C.

The term melting point denotes the temperature, or range, at which the solid turns liquid.

Values taken from a melting point compilation (Tetko et al.; mined from patent text by program, amines drawn as free bases though some values may be those of a salt).
